PMC8102066 (eLife, 2021)
“And” between values parts separate entries of the source, which are not always exact repeats. Equal values may be shown once.

Legend:
[1] = target: mGluR3 (Rattus norvegicus, UniProt P31422); assay: Calcium imaging (G protein chimera, GCaMP6f) in HEK 293 T cells
[2] = target: T1, mGluR2-C121A (Rattus norvegicus, UniProt P31421, C121A); assay: SiMPull subunit counting in the presence of ligands; conditions: SNAP-mGluR2-C121A in presence of the ligand; single replicates per experiment day
T1 construct: expressed in transfected cells; host or cells: HEK 293 T (detergent lysate, pulled down by anti-HA antibody)
T1 sequence (P31421 19-872 C121A): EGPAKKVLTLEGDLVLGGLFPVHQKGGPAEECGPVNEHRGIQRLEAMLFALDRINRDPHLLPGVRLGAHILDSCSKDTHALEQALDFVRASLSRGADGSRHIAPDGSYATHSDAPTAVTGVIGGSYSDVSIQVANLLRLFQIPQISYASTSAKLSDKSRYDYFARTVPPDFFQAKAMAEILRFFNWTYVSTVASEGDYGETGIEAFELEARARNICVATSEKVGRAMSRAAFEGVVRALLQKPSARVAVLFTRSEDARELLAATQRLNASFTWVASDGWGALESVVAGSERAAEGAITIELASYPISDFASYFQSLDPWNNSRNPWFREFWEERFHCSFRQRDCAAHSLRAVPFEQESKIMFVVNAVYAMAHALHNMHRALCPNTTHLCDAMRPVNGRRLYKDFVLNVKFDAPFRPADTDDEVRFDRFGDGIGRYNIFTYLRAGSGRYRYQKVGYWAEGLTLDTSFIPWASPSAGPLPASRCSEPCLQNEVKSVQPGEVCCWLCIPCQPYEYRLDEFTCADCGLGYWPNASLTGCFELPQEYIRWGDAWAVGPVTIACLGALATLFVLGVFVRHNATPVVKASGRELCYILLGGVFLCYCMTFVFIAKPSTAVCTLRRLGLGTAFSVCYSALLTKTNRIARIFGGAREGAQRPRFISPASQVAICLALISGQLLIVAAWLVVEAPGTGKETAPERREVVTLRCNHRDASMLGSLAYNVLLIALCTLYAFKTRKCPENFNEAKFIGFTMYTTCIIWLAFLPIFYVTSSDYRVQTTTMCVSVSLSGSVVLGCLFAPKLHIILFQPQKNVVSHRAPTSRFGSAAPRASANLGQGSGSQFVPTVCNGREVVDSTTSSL

[3] = target: mGluR3-I788A (Rattus norvegicus, UniProt P31422, I788A); assay: Inter-TMD FRET sensor (HaloTag in ICL2), live cells; type: cell-based; parameters: expressed in transfected cells; host or cells: HEK 293 T; FRET response amplitude: scale not given here; conditions: for FRET response amplitude: inter-TMD FRET
mGluR3-I788A, sequence (P31422 23-879 I788A): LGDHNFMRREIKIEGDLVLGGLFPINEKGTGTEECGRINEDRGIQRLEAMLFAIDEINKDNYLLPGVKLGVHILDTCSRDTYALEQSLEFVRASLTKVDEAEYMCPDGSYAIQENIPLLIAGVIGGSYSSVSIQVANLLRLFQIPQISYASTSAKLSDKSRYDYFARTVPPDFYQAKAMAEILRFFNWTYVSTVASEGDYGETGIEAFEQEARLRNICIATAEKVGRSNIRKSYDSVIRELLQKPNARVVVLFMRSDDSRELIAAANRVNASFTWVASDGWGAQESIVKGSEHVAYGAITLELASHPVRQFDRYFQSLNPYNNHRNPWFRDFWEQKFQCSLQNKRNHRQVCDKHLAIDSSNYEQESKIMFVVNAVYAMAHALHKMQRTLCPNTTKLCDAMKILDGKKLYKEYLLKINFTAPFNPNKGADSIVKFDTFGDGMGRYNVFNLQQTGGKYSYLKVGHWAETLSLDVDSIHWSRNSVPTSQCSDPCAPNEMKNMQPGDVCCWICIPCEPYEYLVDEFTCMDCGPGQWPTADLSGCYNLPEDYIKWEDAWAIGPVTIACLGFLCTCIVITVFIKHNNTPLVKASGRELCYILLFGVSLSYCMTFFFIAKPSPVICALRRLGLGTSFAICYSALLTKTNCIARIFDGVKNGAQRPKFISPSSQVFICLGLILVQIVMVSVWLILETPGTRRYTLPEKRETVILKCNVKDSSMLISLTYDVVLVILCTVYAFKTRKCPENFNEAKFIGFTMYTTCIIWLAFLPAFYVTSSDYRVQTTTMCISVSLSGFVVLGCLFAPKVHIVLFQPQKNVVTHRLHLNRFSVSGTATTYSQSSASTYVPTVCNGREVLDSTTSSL
Description: Next, we asked how perturbing the TM6 interface would alter the conformational dynamics detected by our TMD FRET sensors.

[4] = target: T2, mGluR2-C121A-3xTM4 (Rattus norvegicus, UniProt P31421, A677S/A681F/A685G/C121A); assay: SiMPull subunit counting in the presence of ligands
T2 construct: expressed in transfected cells; host or cells: HEK 293 T (detergent lysate, pulled down by anti-HA antibody)
T2 sequence (P31421 19-872 C121A/A677S/A681F/A685G): as the sequence (P31421 19-872 C121A) above, with A659S, A663F, A667G counted along it

[5] = target: T3, mGluR2-AA695SV (Rattus norvegicus, UniProt P31421, A695S/A696V); assay: Calcium imaging in HEK 293 T cells; type: cell-based
T3 construct: calcium imaging experiments with mutations in the full-length mGluR2 background; expressed in transfected cells; host or cells: HEK 293T
T3 sequence (P31421 19-872 A695S/A696V): as the sequence (P31421 19-872 C121A) above, with A103C, A677S, A678V counted along it
Description: (§1) Approximately 30 ROIs were analyzed per movie.

[6] = target: T4, mGluR2-P778A (Rattus norvegicus, UniProt P31421, P778A); assay: Calcium imaging in HEK 293 T cells; type: cell-based
T4 construct: we performed calcium imaging experiments with mutations in the full-length mGluR2 background; expressed in transfected cells; host or cells: HEK 293 T
T4 sequence (P31421 19-872 P778A): as the sequence (P31421 19-872 C121A) above, with A103C, P760A counted along it
Description: as §1

[7] = target: T5, mGluR2-F584I-G587T (Rattus norvegicus, UniProt P31421, F584I/G587T); assay: Calcium imaging in HEK 293 T cells; type: cell-based
T5 construct: calcium imaging experiments with mutations in the full-length mGluR2 background; expressed in transfected cells; host or cells: HEK 293T
T5 sequence (P31421 19-872 F584I/G587T): as the sequence (P31421 19-872 C121A) above, with A103C, F566I, G569T counted along it
Description: as §1

[8] = target: T6, mGluR2-A726S-G730I-A733T (Rattus norvegicus, UniProt P31421, A726S/A733T/G730I); assay: Calcium imaging in HEK 293 T cells; type: cell-based
T6 construct: calcium imaging experiments with mutations in the full-length mGluR2 background; expressed in transfected cells; host or cells: HEK 293T
T6 sequence (P31421 19-872 A726S/G730I/A733T): as the sequence (P31421 19-872 C121A) above, with A103C, A708S, G712I, A715T counted along it
Description: as §1

[9] = target: mGluR2 (Rattus norvegicus, UniProt P31421); assay: Inter-LBD FRET (N-terminal SNAP-tags), live cells; conditions: mGluR2, inter-LBD FRET
mGluR2, sequence (P31421 19-872): as the sequence (P31421 19-872 C121A) above, with A103C counted along it

[10] = target: T7, mGluR2-3xTM4 (Rattus norvegicus, UniProt P31421, A677S/A681F/A685G/INS660ASEIGTGFPFDPHYVEVLGERMHYVDVGPRDGTPVLFLHGNPTSSYVWRNIIPHVAPTHRCIAPDLIGMGKSDKPDLGYFFDDHVRFMDAFIEALGLEEVVLVIHDWGSALGFHWAKRNPERVKGIAFMEFIRPIPTWDEWPEFARETFQAFRTTDVGRKLIIDQNVFIEGTLPMGVVRPLTEVEMDHYREPFLNPVDREPLWRFPNELPIAGEPANIVALVEEYMDWLHQSPVPKLLFWGTPGVLIPPAEAARLAKSLPNCKAVDIGPGLNLLQEDNPDLIGSEIARWLSTLEISGLE); assay: Inter-TMD FRET sensor (HaloTag in ICL2), live cells; type: cell-based
T7 construct: expressed in transfected cells; host or cells: HEK 293T
T7 sequence (P31421 with tags, fused parts or gaps with the stated changes): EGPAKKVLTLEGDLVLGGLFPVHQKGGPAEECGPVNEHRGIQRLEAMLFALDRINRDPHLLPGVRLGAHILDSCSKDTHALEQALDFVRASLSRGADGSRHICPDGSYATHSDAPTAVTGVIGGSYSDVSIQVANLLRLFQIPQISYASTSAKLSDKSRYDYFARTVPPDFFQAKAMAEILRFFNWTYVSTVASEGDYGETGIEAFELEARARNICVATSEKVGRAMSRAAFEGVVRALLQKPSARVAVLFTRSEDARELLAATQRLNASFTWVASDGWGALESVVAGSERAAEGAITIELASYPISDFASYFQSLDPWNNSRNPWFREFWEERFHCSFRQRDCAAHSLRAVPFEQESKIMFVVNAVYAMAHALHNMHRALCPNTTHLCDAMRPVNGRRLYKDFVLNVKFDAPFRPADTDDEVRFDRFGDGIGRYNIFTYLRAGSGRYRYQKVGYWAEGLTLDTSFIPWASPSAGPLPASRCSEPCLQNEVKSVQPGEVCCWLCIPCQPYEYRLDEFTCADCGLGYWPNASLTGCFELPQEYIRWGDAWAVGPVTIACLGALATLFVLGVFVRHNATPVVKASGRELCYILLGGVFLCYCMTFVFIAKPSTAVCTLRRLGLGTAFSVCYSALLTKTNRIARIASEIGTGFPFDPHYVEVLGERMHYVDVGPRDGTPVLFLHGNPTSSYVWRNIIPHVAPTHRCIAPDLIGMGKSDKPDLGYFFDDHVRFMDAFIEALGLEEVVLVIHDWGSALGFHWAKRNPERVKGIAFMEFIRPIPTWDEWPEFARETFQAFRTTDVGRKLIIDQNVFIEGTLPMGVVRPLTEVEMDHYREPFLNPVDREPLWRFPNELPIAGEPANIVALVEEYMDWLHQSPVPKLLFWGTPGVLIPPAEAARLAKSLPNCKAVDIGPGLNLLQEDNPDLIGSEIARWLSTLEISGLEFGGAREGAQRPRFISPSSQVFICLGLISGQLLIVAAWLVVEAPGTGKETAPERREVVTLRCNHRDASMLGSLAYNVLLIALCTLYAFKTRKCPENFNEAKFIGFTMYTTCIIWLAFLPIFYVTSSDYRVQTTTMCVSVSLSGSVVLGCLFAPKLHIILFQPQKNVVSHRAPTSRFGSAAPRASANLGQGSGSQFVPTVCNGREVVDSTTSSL

mGluR3, sequence (P31422 23-879): as the sequence (P31422 23-879 I788A) above, with A766I counted along it

Work on `N[C@@H](CCC(=O)O)C(=O)O` [glutamate] yielded a Calcium response amplitude ([1]; Glutamate 1 nM, mGluR3) of 0.00, a Calcium response amplitude ([1]; Glutamate 1 nM, normalized to 1 mM glutamate, replicates) of 0.00 and a Calcium response amplitude ([1]; Glutamate 10 nM, mGluR3) of 0.00. For the same compound, the Calcium response amplitude ([1]; Glutamate 10 nM, normalized to 1 mM glutamate, replicates) was 0.00, the Calcium response amplitude ([1]; Glutamate 100 nM, mGluR3) was 0.23 and the Calcium response amplitude ([1]; Glutamate 100 nM, normalized to 1 mM glutamate, replicates) was 0.23. The Calcium response amplitude ([1]; Glutamate 1 uM, mGluR3) was 0.61 and 0.64 and 0.67 and 0.55, the Calcium response amplitude ([1]; Glutamate 1 uM, normalized to 1 mM glutamate, replicates) was 0.61 and 0.64 and 0.67 and 0.55 and the Calcium response amplitude ([1]; Glutamate 2 uM, mGluR3) was 0.66 and 0.77. For the same compound, the Calcium response amplitude ([1]; Glutamate 2 uM, normalized to 1 mM glutamate, replicates) was 0.66 and 0.77, the Calcium response amplitude ([1]; Glutamate 3 uM, mGluR3) was 0.83 and 0.79 and the Calcium response amplitude ([1]; Glutamate 3 uM, normalized to 1 mM glutamate, replicates) was 0.83 and 0.79. For the same compound, the Calcium response amplitude ([1]; Glutamate 5 uM, mGluR3) was 0.89 and 0.95 and 0.77, the Calcium response amplitude ([1]; Glutamate 5 uM, normalized to 1 mM glutamate, replicates) was 0.89 and 0.95 and 0.77 and the Calcium response amplitude ([1]; Glutamate 10 uM, mGluR3) was 0.99 and 0.95 and 0.92. For the same compound, the Calcium response amplitude ([1]; Glutamate 10 uM, normalized to 1 mM glutamate, replicates) was 0.99 and 0.95 and 0.92, the Calcium response amplitude ([1]; Glutamate 1 mM, mGluR3) was 1.00 and the Calcium response amplitude ([1]; Glutamate 1 mM, normalized to 1 mM glutamate, replicates) was 1.00. For the same compound, the EC50 ([1]; read-out: Glutamate EC50, calcium imaging, normalized to saturating (1 mM) glutamate) was 560 ± 60 nM, the “% Dimerization” value [2] was 86.45% and 81.10% and 91.37% and 96.00% and 70.30% and 76.67% and the FRET response amplitude ([3]; Glutamate 10 nM) was 0.00. For the same compound, the FRET response amplitude ([3]; Glutamate 1 uM) was 0.60 and 0.66 and 0.55, the FRET response amplitude ([3]; Glutamate 10 uM) was 0.97 and 1.00 and 0.86 and the FRET response amplitude ([3]; Glutamate 100 uM) was 1.00. For the same compound, the FRET response amplitude ([3]; Glutamate 1 mM) was 1.00, the EC50 ([3]; read-out: Glutamate EC50, inter-TMD FRET, normalized to saturating (1 mM) glutamate, unit inferred) was 660 ± 50 nM and the “% Dimerization” value ([4]; SNAP-mGluR2-C121A-3xTM4 in presence of the ligand, single replicates per experiment day) was 89.26% and 88.28% and 81.34% and 81.93% and 82.70% and 80.09%. For the same compound, the “effect of ligand on dimerization (SiMPull)” value ([4]; saturating concentration) was “clear increase in dimerization”, the Calcium response amplitude ([5]; Glutamate 10 nM) was 0.00 and the Calcium response amplitude ([5]; Glutamate 100 nM) was 0.00. The Calcium response amplitude ([5]; Glutamate 10 uM) was 0.72 and 0.97, the Calcium response amplitude ([5]; Glutamate 100 uM) was 1.00 and the Calcium response amplitude ([5]; Glutamate 1 mM) was 1.00. The Calcium response amplitude ([6]; Glutamate concentration 100 nM) was 0.00, the Calcium response amplitude ([6]; Glutamate concentration 1 uM) was 0.48 and 0.50 and the Calcium response amplitude ([6]; Glutamate concentration 10 uM) was 0.94 and 0.87. For the same compound, the Calcium response amplitude ([6]; Glutamate concentration 1 mM) was 1.00, the Calcium response amplitude ([7]; Glutamate 100 nM) was 0.00 and the Calcium response amplitude ([7]; Glutamate 3 uM) was 0.62 and 0.57 and 0.48. The Calcium response amplitude ([7]; Glutamate 10 uM) was 0.87 and 0.71, the Calcium response amplitude ([8]; Glutamate 100 nM) was 0.00 and the Calcium response amplitude ([8]; Glutamate 3 uM) was 0.71 and 0.60. The Calcium response amplitude ([8]; Glutamate 10 uM) was 0.93 and 0.97 and 0.56, the Calcium response amplitude ([8]; Glutamate 100 uM) was 1.00 and the Calcium response amplitude ([8]; Glutamate 1 mM) was 1.00. The FRET response amplitude ([9]; Glutamate 10 nM) was 0.00, the FRET response amplitude ([9]; Glutamate 100 nM) was 0.00 and the FRET response amplitude ([9]; Glutamate 3 uM) was 0.13 and 0.11 and 0.12 and 0.09. The FRET response amplitude ([9]; Glutamate 10 uM) was 0.41 and 0.51 and 0.46 and 0.30, the FRET response amplitude ([9]; Glutamate 100 uM) was 0.98 and 1.00 and 0.985 and the FRET response amplitude ([9]; Glutamate 1 mM) was 1.00. For the same compound, the FRET response amplitude ([10]; Glutamate 10 nM) was 0.00, the FRET response amplitude ([10]; Glutamate 100 nM) was 0.0446 and the FRET response amplitude ([10]; Glutamate 1 uM) was 0.14 and 0.10 and 0.11. For the same compound, the FRET response amplitude ([10]; Glutamate 10 uM) was 0.89 and 0.71, the FRET response amplitude ([10]; Glutamate 100 uM) was 1.00 and the FRET response amplitude ([10]; Glutamate 1 mM) was 1.00.
